The values that follow come from US20250034127A1, “AUTOPHAGY INDUCING COMPOUNDS AND USES THEREOF, IN PARTICULAR FOR DISEASES OF THE CNS” (Samsara Therapeutics Inc., priority 2021, published 2025).

SMILES strings stand for the structures.

One assay concerns Human osteosarcoma U2OS cells. The assay is described as follows: Assay to measure lysosome and autolysosome (acidic vesicle) formation in U2OS cells. The class given is cell-based. To be noted: Homo sapiens, concentration of 0.8 μM, read-out: Activity (percentage increase in acidic vesicle formation over the DMSO-treated control). As for the experimental part: Lysosomes play a fundamental role in the autophagic pathway by fusing with autophagosomes and creating ‘autolysosomes’ in order to digest their contents. Stimulation of lysosome and autolysosome formation by a compound is indicative of a stimulation of autophagy. The ability of compounds to stimulate lysosome and autolysosome formation, and thus autophagy, in live cells was assessed via fluorescent microscopy using various fluorescent stains for labelling and tracking acidic organelles (including lysosomes and autolysosomes) such as: LysoView™ 650 (70059 and 70059-T, Biotium), Lyso View™633 (70058 and 70058-T, Biotium) and LysoTracker™ Deep Red (L12492, ThermoFisher Scientific). The cellular phenotype was quantitatively assessed for the induction of acidic vesicle formation and compared to a non-treated control, thus providing a measure of the ability of the compound under investigation to stimulate autophagy.
Representative procedure using LysoView™ 633 dye or LysoTracker™ Deep Red dye: Human osteosarcoma U2OS cells (40,000 cells/well) were seeded in a 24 well glass bottom plate (Sensoplate, Greiner Bio-One) and were incubated overnight in a humidified atmosphere at 37° C. and 5% CO2. Cells were grown in DMEM (Gibco) supplemented with 10% Fetal Bovine Serum (FBS) and 100 units/ml penicillin and 100 μg/ml streptomycin (Invitrogen). After the attachment period, cells were treated with different compounds of interest (at various concentrations in DMSO) or DMSO (non-treated control) in cell culture medium and were incubated for 24 hours. Compound-containing medium was removed and cells were incubated with pre-warmed cell culture medium containing 1× Lyso View™ 633 (70058 and 70058-T, Biotium) or 50 nM LysoTracker™ Deep Red (L12492, ThermoFisher Scientific) for 45 minutes at 37° C. Finally, cell nuclei were stained for 10 minutes using Hoechst 33342 (1 μg/mL) and then the medium was replaced with fresh medium. The 24 well plate was then fitted into a heated stage on the microscope and cells maintained at 37° C. Images were captured using appropriate filter set for Cy5 and DAPI detection with the EVOS M7000 Microscope (ThermoFisher Scientific). The cellular phenotype was visually assessed for the induction of acidic vesicle formation relative to the non-treated control; multiple images were acquired and analysed using ImageJ or Cell Profiler.
For `CCN1CCC(N(C)C(=O)c2cc(-c3nnc(-c4ccccc4)s3)cs2)CC1` [Compound 258, N-(1-ethylpiperidin-4-yl)-N-methyl-4-(5-phenyl-1,3,4-thiadiazol-2-yl)thiophene-2-carboxamide], the activation at 0.8 µM lay within 10 to 30%. With `C[C@H]1CN(C(=O)c2csc(-c3cnn(-c4cccnn4)c3)n2)CCN1` [Compound 229, 3-(4-{4-[(3S)-3-methylpiperazine-1-carbonyl]-1,3-thiazol-2-yl}-1H-pyrazol-1-yl)pyridazine], the activation at 0.8 µM fell in the range of 30 to 50%. For the molecule `CCN1CCC(N(C)C(=O)c2csc(-c3cnn(-c4cnccn4)c3)n2)CC1` [Compound 233, N-(1-ethylpiperidin-4-yl)-N-methyl-2-[1-(pyrazin-2-yl)-1H-pyrazol-4-yl]-1,3-thiazole-4-carboxamide], the activation at 0.8 µM was in the range of 50 to 100%.

`CCN1C[C@@H]2C[C@H]1CC2N(C)C(=O)c1csc(-c2cnn(-c3ccccc3)c2)n1` (stereo partly drawn) [Compound 245, N-[(1S,4S)-2-ethyl-2-azabicyclo[2.2.1]heptan-5-yl]-N-methyl-2-(1-phenyl-1H-pyrazol-4-yl)-1,3-thiazole-4-carboxamide]: the activation at 0.8 µM lay in the range of 10 to 30%. Take `CCN1CCC(N(C)C(=O)c2csc(-c3cnn(-c4ccccn4)c3)n2)CC1` [Compound 221, N-(1-ethylpiperidin-4-yl)-N-methyl-2-[1-(pyridin-2-yl)-1H-pyrazol-4-yl]-1,3-thiazole-4-carboxamide]: the activation at 0.8 µM was 10 to 30%. In the case of `C[C@H]1CN(C(=O)c2csc(-c3cnn(-c4ncccn4)c3)n2)CCN1` [Compound 249, 2-(4-{4-[(3S)-3-methylpiperazine-1-carbonyl]-1,3-thiazol-2-yl}-1H-pyrazol-1-yl)pyrimidine], the activation at 0.8 µM was in the range of 10 to 30%. For `NS(=O)(=O)N1CCN(C(=O)c2ccc(-c3cnn(-c4ccccc4C(F)(F)F)c3)[nH]2)CC1` [Compound 216, 4-(5-{1-[2-(trifluoromethyl)phenyl]-1H-pyrazol-4-yl}-1H-pyrrole-2-carbonyl)piperazine-1-sulfonamide], the activation at 0.8 µM lay within 10 to 30%. For the molecule `CCN1CCC(NC(=O)c2csc(-c3cnn(-c4ccncc4)c3)n2)CC1` [Compound 228, N-(1-ethylpiperidin-4-yl)-2-[1-(pyridin-4-yl)-1H-pyrazol-4-yl]-1,3-thiazole-4-carboxamide], the activation at 0.8 µM was 10 to 30%. As to `C[C@H]1CN(C(=O)c2csc(-c3cnn(-c4cnccn4)c3)n2)CCN1` [Compound 232, 2-(4-{4-[(3S)-3-methylpiperazine-1-carbonyl]-1,3-thiazol-2-yl}-1H-pyrazol-1-yl)pyrazine], the activation at 0.8 µM lay in the range of 50 to 100%. For `O=C(NCCN1CCOCC1)c1csc(-c2cnn(-c3ccccc3)c2)n1` [Compound 204, N-[2-(morpholin-4-yl)ethyl]-2-(1-phenyl-1H-pyrazol-4-yl)-1,3-thiazole-4-carboxamide], the activation at 0.8 µM was in the range of 10 to 30%. For the molecule `CCN1CCC(N(C)C(=O)c2csc(-c3cnn(-c4ncccn4)c3)n2)CC1` [Compound 250, N-(1-ethylpiperidin-4-yl)-N-methyl-2-[1-(pyrimidin-2-yl)-1H-pyrazol-4-yl]-1,3-thiazole-4-carboxamide], the activation at 0.8 µM was in the range of 10 to 30%. Take `O=C(NCCN1CCCCC1)c1csc(-c2cnn(-c3ccccc3)c2)n1` [Compound 202, 2-(1-phenyl-1H-pyrazol-4-yl)-N-[2-(piperidin-1-yl)ethyl]-1,3-thiazole-4-carboxamide]: the activation at 0.8 µM lay in the range of 30 to 50%. For `CCN1CCC(NC(=O)c2csc(-c3cnn(-c4cnccn4)c3)n2)CC1` [Compound 234, N-(1-ethylpiperidin-4-yl)-2-[1-(pyrazin-2-yl)-1H-pyrazol-4-yl]-1,3-thiazole-4-carboxamide], the activation at 0.8 µM lay in the range of 30 to 50%. The same measure, in the same setting: the result for `CN(C(=O)c1csc(-c2cnn(-c3ccccc3)c2)n1)C1CCN(C(C)(C)C)CC1` [Compound 239, N-(1-tert-butylpiperidin-4-yl)-N-methyl-2-(1-phenyl-1H-pyrazol-4-yl)-1,3-thiazole-4-carboxamide] reads 10 to 30%.

Take `CCN1C[C@H]2C[C@@H]1CC2NC(=O)c1csc(-c2cnn(-c3ccccc3)c2)n1` (stereo partly drawn) [Compound 244, N-[(1R,4R)-2-ethyl-2-azabicyclo[2.2.1]heptan-5-yl]-2-(1-phenyl-1H-pyrazol-4-yl)-1,3-thiazole-4-carboxamide]: the activation at 0.8 µM was in the range of 10 to 30%. With `CCN1CCC(NC(=O)c2csc(-c3cnn(-c4ccc(F)cc4)c3)n2)CC1` [Compound 213, N-(1-ethylpiperidin-4-yl)-2-[1-(4-fluorophenyl)-1H-pyrazol-4-yl]-1,3-thiazole-4-carboxamide], the activation at 0.8 µM was 10 to 30%. In the case of `CCN1CCC(NC(=O)c2csc(-c3cnn(-c4cccnn4)c3)n2)CC1` [Compound 231, N-(1-ethylpiperidin-4-yl)-2-[1-(pyridazin-3-yl)-1H-pyrazol-4-yl]-1,3-thiazole-4-carboxamide], the activation at 0.8 µM is 10 to 30%. As to `CC(=O)N1CCN(C(=O)c2csc(-c3cnn(-c4ccccc4)c3)n2)CC1` [Compound 198, 1-{4-[2-(1-phenyl-1H-pyrazol-4-yl)-1,3-thiazole-4-carbonyl]piperazin-1-yl}ethan-1-one], the activation at 0.8 µM was 10 to 30%. Take `CN(CCN(C)C1CCCCC1)C(=O)c1csc(-c2cnn(-c3ccccc3)c2)n1` [Compound 190, N-{2-[cyclohexyl(methyl)amino]ethyl}-N-methyl-2-(1-phenyl-1H-pyrazol-4-yl)-1,3-thiazole-4-carboxamide]: the activation at 0.8 µM lay in the range of 10 to 30%.

Regarding `CCN1CCN(C(=O)c2csc(-c3cnn(-c4ccccc4)c3)n2)CC1` [Compound 236, 1-ethyl-4-[2-(1-phenyl-1H-pyrazol-4-yl)-1,3-thiazole-4-carbonyl]piperazine], the activation at 0.8 µM lay in the range of 10 to 30%. Regarding `CCN1CCC(NC(=O)c2csc(-c3cnn(-c4cccnc4)c3)n2)CC1` [Compound 225, N-(1-ethylpiperidin-4-yl)-2-[1-(pyridin-3-yl)-1H-pyrazol-4-yl]-1,3-thiazole-4-carboxamide], the activation at 0.8 µM lay within 10 to 30%.

Turning to `CCN1CCC(N(C)C(=O)c2csc(-c3cnn(-c4cccnc4)c3)n2)CC1` [Compound 224, N-(1-ethylpiperidin-4-yl)-N-methyl-2-[1-(pyridin-3-yl)-1H-pyrazol-4-yl]-1,3-thiazole-4-carboxamide], the activation at 0.8 µM lay within 50 to 100%. The same measure, in the same setting: then `CN1CCC[C@H](NC(=O)c2csc(-c3cnn(-c4ccccc4)c3)n2)C1` [Compound 208, N-[(3S)-1-methylpiperidin-3-yl]-2-(1-phenyl-1H-pyrazol-4-yl)-1,3-thiazole-4-carboxamide], with 10 to 30%; and `CCN1CCC(N(CC)C(=O)c2csc(-c3cnn(-c4ccccc4)c3)n2)CC1` [Compound 219, N-ethyl-N-(1-ethylpiperidin-4-yl)-2-(1-phenyl-1H-pyrazol-4-yl)-1,3-thiazole-4-carboxamide], with over 100%.

For the molecule `C[C@H]1CN(C(=O)c2csc(-c3cnn(-c4cccnc4)c3)n2)CCN1` [Compound 223, (3S)-3-methyl-1-{2-[1-(pyridin-3-yl)-1H-pyrazol-4-yl]-1,3-thiazole-4-carbonyl}piperazine], the activation at 0.8 µM lay within 10 to 30%.

For the molecule `CCN1C[C@@H]2C[C@H]1CC2NC(=O)c1csc(-c2cnn(-c3ccccc3)c2)n1` (stereo partly drawn) [Compound 246, N-[(1S,4S)-2-ethyl-2-azabicyclo[2.2.1]heptan-5-yl]-2-(1-phenyl-1H-pyrazol-4-yl)-1,3-thiazole-4-carboxamide], the activation at 0.8 µM is 10 to 30%.

Still in this assay, the particulars now being: concentration of 10 μM, 24 hours.
`CCN1CCC(N(C)C(=O)c2cc(-c3nnc(-c4ccccc4)s3)cs2)CC1` [Compound 258, N-(1-ethylpiperidin-4-yl)-N-methyl-4-(5-phenyl-1,3,4-thiadiazol-2-yl)thiophene-2-carboxamide]: the “acidic vesicle formation relative to a DMSO-treated control” value is on record as “only a slight increase”.

With `C[C@H]1CN(C(=O)c2csc(-c3cnn(-c4ccncc4)c3)n2)CCN1` [Compound 226, (3S)-3-methyl-1-{2-[1-(pyridin-4-yl)-1H-pyrazol-4-yl]-1,3-thiazole-4-carbonyl}piperazine], the “acidic vesicle formation relative to a DMSO-treated control” value is on record as “only a slight increase”. `C[C@H]1CC(N(C)C(=O)c2csc(-c3cnn(-c4ccccc4)c3)n2)CCN1` (stereo partly drawn) [Compound 241, N-methyl-N-[(2S)-2-methylpiperidin-4-yl]-2-(1-phenyl-1H-pyrazol-4-yl)-1,3-thiazole-4-carboxamide]: the “acidic vesicle formation relative to a DMSO-treated control” value is listed as “only a slight increase”. `CCN1CCC(N(C)C(=O)c2csc(-c3cnn(-c4ccncc4)c3)n2)CC1` [Compound 227, N-(1-ethylpiperidin-4-yl)-N-methyl-2-[1-(pyridin-4-yl)-1H-pyrazol-4-yl]-1,3-thiazole-4-carboxamide]: the “acidic vesicle formation relative to a DMSO-treated control” value was “only a slight increase”. With `C[C@H]1CN(C(=O)c2csc(-c3cnn(-c4cnccn4)c3)n2)CCN1` [Compound 232, 2-(4-{4-[(3S)-3-methylpiperazine-1-carbonyl]-1,3-thiazol-2-yl}-1H-pyrazol-1-yl)pyrazine], the “acidic vesicle formation relative to a DMSO-treated control” value is given as “only a slight increase”. On to `C[C@H]1CN(C(=O)c2csc(-c3cnn(-c4cccnc4)c3)n2)CCN1` [Compound 223, (3S)-3-methyl-1-{2-[1-(pyridin-3-yl)-1H-pyrazol-4-yl]-1,3-thiazole-4-carbonyl}piperazine], for which the “acidic vesicle formation relative to a DMSO-treated control” value is on record as “only a slight increase”.
